Assay results published in paper PMC9014845 (Clinical cancer research : an official journal of the …, 2019).
Entries after “also recorded” stand apart in the source; their conditions may differ.

System: patients with advanced solid tumors harboring FGFR1–3 gene alterations
Assay: Phase I dose-escalation: safety/tolerability
Type: in vivo, human
Conditions: for Any TEAE / Any TEAE leading to discontinuation / Any TEAE leading to dose reduction / Any TEAE leading to treatment interruption / Serious TEAE / TEAE: ALT increased / TEAE: AST increased / TEAE: Abdominal pain / TEAE: Alopecia / TEAE: Anemia / TEAE: Back pain / TEAE: Blurred vision / TEAE: Constipation / TEAE: Creatinine increased (in blood) / TEAE: Decreased appetite / TEAE: Diarrhea / TEAE: Dry eye / TEAE: Dry mouth / TEAE: Dry skin / TEAE: Dysgeusia / TEAE: Dyspnea / TEAE: Edema peripheral / TEAE: Fatigue / TEAE: Hyperphosphatemia / TEAE: Hypertension / TEAE: Hypokalemia / TEAE: Hypomagnesemia / TEAE: Mucosal inflammation / TEAE: Myalgia / TEAE: Nail changes / TEAE: Nausea / TEAE: Stomatitis / TEAE: Vomiting: all grades

Debio 1347
DLT observed (60 mg): grade-2 dry mouth and eyes
Any TEAE (60 mg (n=10)): 10 (100) Number (%) of patients
Any TEAE leading to discontinuation (60 mg (n=10)): 1 (10) Number (%) of patients
Any TEAE leading to dose reduction (60 mg (n=10)): 2 (20) Number (%) of patients
Any TEAE leading to treatment interruption (60 mg (n=10)): 6 (60) Number (%) of patients
Serious TEAE (60 mg (n=10)): 2 (20) Number (%) of patients
TEAE: ALT increased (60 mg (n=10)): 1 (10) Number (%) of patients
TEAE: AST increased (60 mg (n=10)): 2 (20) Number (%) of patients
TEAE: Abdominal pain (60 mg (n=10)): 3 (30) Number (%) of patients
TEAE: Alopecia (60 mg (n=10)): 1 (10) Number (%) of patients
TEAE: Anemia (60 mg (n=10)): 4 (40) Number (%) of patients
TEAE: Back pain (60 mg (n=10)): 0 Number (%) of patients
TEAE: Blurred vision (60 mg (n=10)): 1 (10) Number (%) of patients
TEAE: Constipation (60 mg (n=10)): 2 (20) Number (%) of patients
TEAE: Creatinine increased (in blood) (60 mg (n=10)): 2 (20) Number (%) of patients
TEAE: Decreased appetite (60 mg (n=10)): 3 (30) Number (%) of patients
TEAE: Diarrhea (60 mg (n=10)): 7 (70) Number (%) of patients
TEAE: Dry eye (60 mg (n=10)): 2 (20) Number (%) of patients
TEAE: Dry mouth (60 mg (n=10)): 4 (40) Number (%) of patients
TEAE: Dry skin (60 mg (n=10)): 0 Number (%) of patients
TEAE: Dysgeusia (60 mg (n=10)): 1 (10) Number (%) of patients
TEAE: Dyspnea (60 mg (n=10)): 3 (30) Number (%) of patients
TEAE: Edema peripheral (60 mg (n=10)): 1 (10) Number (%) of patients
TEAE: Fatigue (60 mg (n=10)): 5 (50) Number (%) of patients
TEAE: Hyperphosphatemia (60 mg (n=10)): 9 (90) Number (%) of patients
TEAE: Hypertension (60 mg (n=10)): 1 (10) Number (%) of patients
TEAE: Hypokalemia (60 mg (n=10)): 0 Number (%) of patients
TEAE: Hypomagnesemia (60 mg (n=10)): 2 (20) Number (%) of patients
TEAE: Mucosal inflammation (60 mg (n=10)): 1 (10) Number (%) of patients
TEAE: Myalgia (60 mg (n=10)): 1 (10) Number (%) of patients
TEAE: Nail changes (60 mg (n=10)): 2 (20) Number (%) of patients
TEAE: Nausea (60 mg (n=10)): 3 (30) Number (%) of patients
TEAE: Stomatitis (60 mg (n=10)): 1 (10) Number (%) of patients
TEAE: Vomiting (60 mg (n=10)): 2 (20) Number (%) of patients
DLT observed (80 mg): hyperamylasemia; also recorded: grade-3 asymptomatic hypercalcemia
Any TEAE (80 mg (n=10)): 10(100%) Number (%) of patients
Any TEAE leading to discontinuation (80 mg (n=10)): 3 (30) Number (%) of patients
Any TEAE leading to dose reduction (80 mg (n=10)): 2 (20) Number (%) of patients
Any TEAE leading to treatment interruption (80 mg (n=10)): 5 (50) Number (%) of patients
Serious TEAE (80 mg (n=10)): 3 (30) Number (%) of patients
TEAE: ALT increased (80 mg (n=10)): 1 (10) Number (%) of patients
TEAE: AST increased (80 mg (n=10)): 1 (10) Number (%) of patients
TEAE: Abdominal pain (80 mg (n=10)): 3 (30) Number (%) of patients
TEAE: Alopecia (80 mg (n=10)): 1 (10) Number (%) of patients
TEAE: Anemia (80 mg (n=10)): 2 (20) Number (%) of patients
TEAE: Back pain (80 mg (n=10)): 0 Number (%) of patients
TEAE: Blurred vision (80 mg (n=10)): 2 (20) Number (%) of patients
TEAE: Constipation (80 mg (n=10)): 3 (30) Number (%) of patients
TEAE: Creatinine increased (in blood) (80 mg (n=10)): 2 (20) Number (%) of patients
TEAE: Decreased appetite (80 mg (n=10)): 5 (50) Number (%) of patients
TEAE: Diarrhea (80 mg (n=10)): 5 (50) Number (%) of patients
TEAE: Dry eye (80 mg (n=10)): 0 Number (%) of patients
TEAE: Dry mouth (80 mg (n=10)): 5 (50) Number (%) of patients
TEAE: Dry skin (80 mg (n=10)): 2 (20) Number (%) of patients
TEAE: Dysgeusia (80 mg (n=10)): 2 (20) Number (%) of patients
TEAE: Dyspnea (80 mg (n=10)): 1 (10) Number (%) of patients
TEAE: Edema peripheral (80 mg (n=10)): 2 (20) Number (%) of patients
TEAE: Fatigue (80 mg (n=10)): 5 (50) Number (%) of patients
TEAE: Hyperphosphatemia (80 mg (n=10)): 9 (90) Number (%) of patients
TEAE: Hypertension (80 mg (n=10)): 0 Number (%) of patients
TEAE: Hypokalemia (80 mg (n=10)): 2 (20) Number (%) of patients
TEAE: Hypomagnesemia (80 mg (n=10)): 1 (10) Number (%) of patients
TEAE: Mucosal inflammation (80 mg (n=10)): 3 (30) Number (%) of patients
TEAE: Myalgia (80 mg (n=10)): 3 (30) Number (%) of patients
TEAE: Nail changes (80 mg (n=10)): 3 (30) Number (%) of patients
TEAE: Nausea (80 mg (n=10)): 3 (30) Number (%) of patients
TEAE: Stomatitis (80 mg (n=10)): 3 (30) Number (%) of patients
TEAE: Vomiting (80 mg (n=10)): 1 (10) Number (%) of patients
DLT observed (110 mg): stomatitis; also recorded: grade-3 bilirubin increase and hyper-phosphatemia
Any TEAE (110 mg (n=9)): 9 (100%) Number (%) of patients
Any TEAE leading to discontinuation (110 mg (n=9)): 1 (11) Number (%) of patients
Any TEAE leading to dose reduction (110 mg (n=9)): 7 (78) Number (%) of patients
Any TEAE leading to treatment interruption (110 mg (n=9)): 8 (89) Number (%) of patients
Serious TEAE (110 mg (n=9)): 4 (44) Number (%) of patients
TEAE: ALT increased (110 mg (n=9)): 1 (11) Number (%) of patients
TEAE: AST increased (110 mg (n=9)): 1 (11) Number (%) of patients
TEAE: Abdominal pain (110 mg (n=9)): 2 (22) Number (%) of patients
TEAE: Alopecia (110 mg (n=9)): 4 (44) Number (%) of patients
TEAE: Anemia (110 mg (n=9)): 3 (33) Number (%) of patients
TEAE: Back pain (110 mg (n=9)): 1 (11) Number (%) of patients
TEAE: Blurred vision (110 mg (n=9)): 2 (22) Number (%) of patients
TEAE: Constipation (110 mg (n=9)): 3 (33) Number (%) of patients
TEAE: Creatinine increased (in blood) (110 mg (n=9)): 0 Number (%) of patients
TEAE: Decreased appetite (110 mg (n=9)): 3 (33) Number (%) of patients
TEAE: Diarrhea (110 mg (n=9)): 3 (33) Number (%) of patients
TEAE: Dry eye (110 mg (n=9)): 4 (44) Number (%) of patients
TEAE: Dry mouth (110 mg (n=9)): 4 (44) Number (%) of patients
TEAE: Dry skin (110 mg (n=9)): 5 (55) Number (%) of patients
TEAE: Dysgeusia (110 mg (n=9)): 4 (44) Number (%) of patients
TEAE: Dyspnea (110 mg (n=9)): 3 (33) Number (%) of patients
TEAE: Edema peripheral (110 mg (n=9)): 2 (22) Number (%) of patients
TEAE: Fatigue (110 mg (n=9)): 5 (55) Number (%) of patients
TEAE: Hyperphosphatemia (110 mg (n=9)): 9 (100) Number (%) of patients
TEAE: Hypertension (110 mg (n=9)): 0 Number (%) of patients
TEAE: Hypokalemia (110 mg (n=9)): 1 (11) Number (%) of patients
TEAE: Hypomagnesemia (110 mg (n=9)): 0 Number (%) of patients
TEAE: Mucosal inflammation (110 mg (n=9)): 2 (22) Number (%) of patients
TEAE: Myalgia (110 mg (n=9)): 3 (33) Number (%) of patients
TEAE: Nausea (110 mg (n=9)): 6 (67) Number (%) of patients
TEAE: Stomatitis (110 mg (n=9)): 7 (78) Number (%) of patients
TEAE: Vomiting (110 mg (n=9)): 3 (33) Number (%) of patients
Any TEAE (150 mg (n=3)): 3 (100%) Number (%) of patients
Any TEAE leading to discontinuation (150 mg (n=3)): 0 (0) Number (%) of patients
Any TEAE leading to treatment interruption (150 mg (n=3)): 3 (100) Number (%) of patients
Serious TEAE (150 mg (n=3)): 2 (67) Number (%) of patients
TEAE: ALT increased (150 mg (n=3)): 0 Number (%) of patients
TEAE: AST increased (150 mg (n=3)): 0 Number (%) of patients
TEAE: Abdominal pain (150 mg (n=3)): 1 (33) Number (%) of patients
TEAE: Alopecia (150 mg (n=3)): 2 (67) Number (%) of patients
TEAE: Anemia (150 mg (n=3)): 0 Number (%) of patients
